Assay [1] addresses human orexin-2 receptor (Homo sapiens (Human), UniProt O43614). In words: FLIPR Ca2+ flux assay, hOX2R. Format: cell-based. Particulars: CHO cells expressing the receptor; agonist 70 pM Ala-6,12 human orexin-A. As to the method: The utility of the compounds in accordance with the present invention as orexin receptor OX1R and/or OX2R antagonists may be readily determined without undue experimentation by methodology well known in the art, including the “FLIPR Ca^2+ Flux Assay” (Okumura et al., Biochem. Biophys. Res. Comm. 280:976-981, 2001). In a typical experiment the OX1 and OX2 receptor antagonistic activity of the compounds of the present invention was determined in accordance with the following experimental method. For intracellular calcium measurements, Chinese hamster ovary (CHO) cells expressing the rat orexin-1 receptor or the human orexin-2 receptor, are grown in Iscove's modified DMEM containing 2 mM L-glutamine, […], 1% hypoxanthine-thymidine supplement, 100 U/ml penicillin, 100 μg/ml streptomycin and 10% heat-inactivated fetal calf serum (FCS). The cells are seeded at 20,000 cells/well into Becton-Dickinson black 384-well clear bottom sterile plates coated with poly-D-lysine. All reagents were from GIBCO-Invitrogen Corp. The seeded plates are incubated overnight at 37° C. and 5% CO2. Ala-6,12 human orexin-A as the agonist is prepared as a 1 mM stock solution in 1% bovine serum albumin (BSA) and diluted in assay buffer (HBSS containing 20 mM HEPES, 0.1% BSA and 2.5 mM probenecid, pH7.4) for use in the assay at a final concentration of 70 pM. Test compounds are prepared as 10 mM stock solution in DMSO, then diluted in 384-well plates, first in DMSO, then assay buffer. On the day of the assay, cells are washed 3 times with 100 μl assay buffer and then incubated for 60 min (37° C., 5% CO2) in 60 μl assay buffer containing 1 μM Fluo-4AM ester, 0.02% pluronic acid, and 1% BSA. The dye loading solution is then aspirated and cells are washed 3 times with 100 μl assay buffer. 30 μl of that same buffer is left in each well. Within the Fluorescent Imaging Plate Reader (FLIPR, Molecular Devices), test compounds are added to the plate in a volume of 25 μl, incubated for 5 min and finally 25 μl of agonist is added. Fluorescence is measured for each well at 1 second intervals for 5 minutes and the height of each fluorescence peak is compared to the height of the fluorescence peak induced by 70 pM Ala-6,12 orexin-A with buffer in place of antagonist. For each antagonist, IC50 value (the concentration of compound needed to inhibit 50% of the agonist response) is determined. Alternatively, compound potency can be assessed by a radioligand binding assay (described in Bergman et. al. Bioorg. Med. Chem. Lett. 2008, 18, 1425-1430) in which the inhibition constant (Ki) is determined in membranes prepared from CHO cells expressing either the OX1 or OX2 receptor. The intrinsic orexin receptor antagonist activity of a compound which may be used in the present invention may be determined by these assays.
(Calcium flux is commonly read through the fluorescence of an indicator in the cells.)

Assay [2] has as its target hOX1R (orexin-1 receptor) (Homo sapiens, UniProt O43613). In words: FLIPR Ca2+ flux assay, hOX1R. Type of assay: cell-based. The following applies: CHO cells expressing the receptor; agonist 70 pM Ala-6,12 human orexin-A.

Sequence of human orexin-2 receptor (O43614 whole entry): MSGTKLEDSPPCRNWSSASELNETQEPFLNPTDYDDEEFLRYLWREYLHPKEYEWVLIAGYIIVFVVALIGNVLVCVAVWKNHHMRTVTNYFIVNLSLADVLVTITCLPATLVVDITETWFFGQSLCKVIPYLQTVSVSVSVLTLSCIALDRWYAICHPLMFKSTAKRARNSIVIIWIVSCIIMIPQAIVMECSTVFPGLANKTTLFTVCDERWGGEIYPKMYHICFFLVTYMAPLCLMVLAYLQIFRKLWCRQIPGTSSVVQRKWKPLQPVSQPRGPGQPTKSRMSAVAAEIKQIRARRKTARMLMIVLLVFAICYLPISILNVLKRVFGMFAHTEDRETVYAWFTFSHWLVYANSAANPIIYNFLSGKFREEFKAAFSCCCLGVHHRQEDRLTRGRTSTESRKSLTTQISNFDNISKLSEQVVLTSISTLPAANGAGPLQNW

The term IC50 denotes the concentration that inhibits the measured activity by half. Read a high IC50 as weaker potency. In the case of `CCN(CCn1ncc(C(C)(C)O)n1)C(=O)c1ccccc1-n1nccn1` [Example 1, N-Ethyl-N-(2-(4-(2-hydroxypropan-2-yl)-2H-1,2,3-triazol-2-yl)ethyl)-2-(2H-1,2,3-triazol-2-yl)benzamide], the IC50 was 58 nM in assay [1] and > 10000 nM in assay [2].
As to `CCN(CCn1ncc(C(C)(O)CC)n1)C(=O)c1ccccc1-n1nccn1` (stereo not shown) [Example 2, N-Ethyl-N-(2-(4-(2-hydroxybutan-2-yl)-2H-1,2,3-triazol-2-yl)ethyl)-2-(2H-1,2,3-triazol-2-yl)benzamide], the concentration for half-maximal inhibition (IC50) in assay [1] was 65 nM; in assay [2], > 10000 nM.
On to `CCN(CCn1ncc(C(C)O)n1)C(=O)c1ccccc1-n1nccn1` (stereo not shown) [Example 3, N-Ethyl-N-(2-(4-(1-hydroxyethyl)-2H-1,2,3-triazol-2-yl)ethyl)-2-(2H-1,2,3-triazol-2-yl)benzamide], for which the IC50 in assay [1] is 373 nM; in assay [2], > 10000 nM.
Take `CCN(CCn1ncc(C(C)(C)O)n1)C(=O)c1ccccc1C1CC1` [Example 4, 2-Cyclopropyl-N-ethyl-N-(2-(4-(2-hydroxypropan-2-yl)-2H-1,2,3-triazol-2-yl)ethyl)benzamide]: the IC50 in assay [1] was 47 nM; in assay [2] it was > 10000 nM.
As for `CCN(CCn1ncc(C(C)(C)O)n1)C(=O)c1ccccc1N1CCCC1` [Example 5, N-ethyl-N-(2-(4-(2-hydroxypropan-2-yl)-2H-1,2,3-triazol-2-yl)ethyl)-2-(pyrrolidin-1-yl)benzamide], the IC50 is 41 nM in assay [1] and > 10000 nM in assay [2].
`CCN(CCn1ncc(C(C)(C)O)n1)C(=O)c1ccccc1SC(F)(F)F` [Example 11, N-ethyl-N-(2-(4-(2-hydroxypropan-2-yl)-2H-1,2,3-triazol-2-yl)ethyl)-2-((trifluoromethyl)thio)benzamide]: the figures for the IC50 in assay [1] and in assay [2] were 34 nM and > 10000 nM, respectively.
Turning to `CCN(CCn1ncc(C(C)(C)O)n1)C(=O)c1ccccc1OC(F)(F)F` [Example 12, N-ethyl-N-(2-(4-(2-hydroxypropan-2-yl)-2H-1,2,3-triazol-2-yl)ethyl)-2-(trifluoromethoxy)benzamide], the IC50 in assay [1] was 247 nM; in assay [2] it was > 10000 nM.
Consider `CCN(CCn1ncc(C(C)(C)O)n1)C(=O)c1ccccc1OC(C)C` [Example 18, N-ethyl-N-(2-(4-(2-hydroxypropan-2-yl)-2H-1,2,3-triazol-2-yl)ethyl)-2-isopropoxybenzamide], for which the IC50 is 145 nM in assay [1] and > 10000 nM in assay [2].
Regarding `CCN(CCn1nc(C)c(C(C)(C)O)n1)C(=O)c1ccccc1-n1nccn1` [Example 20, N-Ethyl-N-(2-(4-(2-hydroxypropan-2-yl)-5-methyl-2H-1,2,3-triazol-2-yl)ethyl)-2-(2H-1,2,3-triazol-2-yl)benzamide], the IC50 in assay [1] worked out at 12 nM; in assay [2] it was 2860 nM.
As to `CCN(CCn1nc(C)c(C(C)(C)O)n1)C(=O)c1cccnc1OCC(F)(F)F` [Example 21, N-Ethyl-N-(2-(4-(2-hydroxypropan-2-yl)-5-methyl-2H-1,2,3-triazol-2-yl)ethyl)-2-(2,2,2-trifluoroethoxy)nicotinamide], the IC50 was 21 nM in assay [1] and > 10000 nM in assay [2].
The matching figures for `CCN(CCn1nc(C)c(C(C)(C)O)n1)C(=O)c1cccnc1OC(C)C` [Example 22, N-ethyl-N-(2-(4-(2-hydroxypropan-2-yl)-5-methyl-2H-1,2,3-triazol-2-yl)ethyl)-2-isopropoxynicotinamide]: 61 nM and > 10000 nM.
Take `CCOc1ncccc1C(=O)N(CC)CCn1nc(C)c(C(C)(C)O)n1` [Example 23, 2-ethoxy-N-ethyl-N-(2-(4-(2-hydroxypropan-2-yl)-5-methyl-2H-1,2,3-triazol-2-yl)ethyl)nicotinamide]: the IC50 in assay [1] was 58 nM; in assay [2] it was > 10000 nM.
Take `CCN(CCn1nc(C)c(C(C)(C)O)n1)C(=O)c1cccnc1OCC(F)F` [Example 24, 2-(2,2-difluoroethoxy)-N-ethyl-N-(2-(4-(2-hydroxypropan-2-yl)-5-methyl-2H-1,2,3-triazol-2-yl)ethyl)nicotinamide]: the values for the IC50 in assay [1] and in assay [2] were 44 nM and > 10000 nM, respectively.
In the case of `CCN(CCn1nc(C)c(C(C)(C)O)n1)C(=O)c1ccccc1OC(F)F` [Example 25, 2-(difluoromethoxy)-N-ethyl-N-(2-(4-(2-hydroxypropan-2-yl)-5-methyl-2H-1,2,3-triazol-2-yl)ethyl)benzamide], the IC50 in assay [1] was 35 nM; in assay [2], > 10000 nM.
In the case of `CCN(CCn1nc(C)c(C(C)(C)O)n1)C(=O)c1ccccc1OC(F)(F)F` [Example 26], the IC50 is 19 nM in assay [1] and > 10000 nM in assay [2].
In the case of `CCOc1ccccc1C(=O)N(CC)CCn1nc(C)c(C(C)(C)O)n1` [Example 27, 2-ethoxy-N-ethyl-N-(2-(4-(2-hydroxypropan-2-yl)-5-methyl-2H-1,2,3-triazol-2-yl)ethyl)benzamide], the half-maximal inhibitory concentration (IC50) in assay [1] was 27 nM; in assay [2] it was > 10000 nM.
On to `CCN(CCn1nc(C)c(C(C)(C)O)n1)C(=O)c1ccccc1C1CC1` [Example 28, 2-cyclopropyl-N-ethyl-N-(2-(4-(2-hydroxypropan-2-yl)-5-methyl-2H-1,2,3-triazol-2-yl)ethyl)benzamide], for which the IC50 in assay [1] worked out at 13 nM; in assay [2], 1560 nM.
The matching figures for `CCN(CCn1nc(C)c(C(C)(C)O)n1)C(=O)c1ccccc1-n1cccn1` [Example 29, N-ethyl-N-(2-(4-(2-hydroxypropan-2-yl)-5-methyl-2H-1,2,3-triazol-2-yl)ethyl)-2-(1H-pyrazol-1-yl)benzamide]: 28 nM and > 10000 nM.
`CCN(CCn1nc(C)c(C(C)(C)O)n1)C(=O)c1ccc(F)cc1-n1nccn1` [Example 30, N-ethyl-4-fluoro-N-(2-(4-(2-hydroxypropan-2-yl)-5-methyl-2H-1,2,3-triazol-2-yl)ethyl)-2-(2H-1,2,3-triazol-2-yl)benzamide]: the IC50 came out at 10 nM in assay [1] and 5540 nM in assay [2].
For `CCN(CCn1nc(C)c(C(C)(C)O)n1)C(=O)c1cccnc1-c1ccccc1` [Example 31, N-ethyl-N-(2-(4-(2-hydroxypropan-2-yl)-5-methyl-2H-1,2,3-triazol-2-yl)ethyl)-2-phenylnicotinamide], in that order: 33 nM and > 10000 nM.
In the case of `CCCc1ccccc1C(=O)N(CC)CCn1nc(C)c(C(C)(C)O)n1` [Example 32, N-ethyl-N-(2-(4-(2-hydroxypropan-2-yl)-5-methyl-2H-1,2,3-triazol-2-yl)ethyl)-2-propylbenzamide], the results for the IC50 in assay [1] and in assay [2] were 32 nM and 2210 nM, respectively.
For `CCN(CCn1nc(C)c(C(C)(C)O)n1)C(=O)c1ccccc1OCC(F)(F)F` [Example 33, N-ethyl-N-(2-(4-(2-hydroxypropan-2-yl)-5-methyl-2H-1,2,3-triazol-2-yl)ethyl)-2-(2,2,2-trifluoroethoxy) benzamide], the results for the IC50 in assay [1] and in assay [2] were 52 nM and > 10000 nM, respectively.
Turning to `CCN(CCn1nc(C)c(C(C)(C)O)n1)C(=O)c1ccccc1CC(F)(F)F` [Example 34, N-ethyl-N-(2-(4-(2-hydroxypropan-2-yl)-5-methyl-2H-1,2,3-triazol-2-yl)ethyl)-2-(2,2,2-trifluoroethyl) benzamide], the results for the IC50 in assay [1] and in assay [2] were 37 nM and > 10000 nM, respectively.

Values taken from patent US10155750B2, “Amidoethyl azole orexin receptor antagonists” (Merck Sharp & Dohme Corp., priority 2014, dated 2018).
